Results taken from article PMC6316600, “Analgesic Activity of Acid-Sensing Ion Channel 3 (ASIС3) Inhibitors: Sea Anemones Peptides Ugr9-1 and APETx2 versus Low Molecular Weight Compounds” (Marine Drugs, 2018).
Entries after “also recorded” stand apart in the source; their conditions may differ. Bridge positions count the residues as written; N and C are the ends. Peptide text beside a SMILES is read from it.

How the values were obtained:
mice = assay: CFA-induced thermal hyperalgesia; format: in vivo, CD-1 mice; conditions: for Effect in CFA test at lowest dose / Dose dependence of effect, thermal hyperalgesia / Dose of maximal effect, thermal hyperalgesia / Reversal of thermal hyperalgesia, 1 mg/kg compared with 0.001–0.002 mg/kg / Thermal hyperalgesia result (in words): intramuscular; for Effect confirmed in independent experiment: sevanol 0.01 mg/kg, Ugr9-1 0.02 mg/kg, data not shown
Protocol: CFA-induced thermal hyperalgesia is a result of different inflammatory pathways’ action on thermal sensitivity of the paw. Injection of CFA into the hind paw provokes increased sensitivity to noxious mechanical and thermal stimuli together with swelling of the paw due to the inflammatory process. […] For APETx2 (Figure 4B), sevanol (Figure 4C), and Ugr9-1 (Figure 4D), the dose dependency of the analgesic effect was evaluated.
Figure 4 Effect of ligands on the CFA-induced thermal hyperalgesia test. Test was performed 2 h after intramuscular administration of ASIC3 antagonists. (A) Comparison between ligands at the dose of 1 mg/kg; (B–D) Dose-dependent chart of ligands’ effect. […] Results are presented as mean ± SEM (n = 7–8). * p < 0.05, ** p < 0.01, *** p < 0.001 versus saline group (ANOVA followed by a Tukey’s test).
Adult male CD-1 mice (Animal Breeding Facility Branch of Shemyakin-Ovchinnikov Institute of Bioorganic Chemistry, Russian Academy of Sciences, Pushchino, Russia) weighing 20–25 g were used. Animals that originally passed clinical examination that confirmed no deviations in health were divided into groups (at least eight male mice per group) using the principle of randomization. The average body weight of animals in each group was not statistically different between groups. Animals were housed at room temperature (23 ± 2 °C) and subjected to a 12-h light-dark cycle with food and water available ad libitum. All experiments were performed after receiving approval from the Animal Care and Use Committee of the Branch of the Institute of Bioorganic Chemistry, Russian Academy of Sciences (IBCh RAS) (Pushchino, Russia Federation). The samples were administered intramuscularly 2 h before testing (4 h in the open field test). The initial dose of 1 mg/kg was investigated for all samples, which was further reduced 5, 50, and 500 times for peptides.
CFA suspended in an oil/saline (1:1) emulsion was injected into the dorsal surfaces of the left hind paws of mice (20 µL/paw) 24 h before the samples’ intramuscular injection. The control mice received 20 µL of saline (intraplantar). The paw withdrawal latencies to thermal stimulation (53 °C) were measured 2 h after the sample injection. The paw diameter was evaluated before the CFA injection, before the samples and saline administration, and 2, 4, and 24 h after the administration using a digital calliper.
The data significance in animal tests was determined by an analysis of variance followed by a Tukey’s test. Data are presented as the mean ± SEM.

human ASIC3 = biological target: T1, human ASIC3 (Homo sapiens, UniProt Q9UHC3); assay: Inhibition of transient hASIC3 current, two-electrode voltage clamp, Xenopus laevis oocytes; format: cell-based
T1 construct: host or cells: Xenopus laevis oocytes (cRNA injection)
T1 sequence (Q9UHC3 1-531): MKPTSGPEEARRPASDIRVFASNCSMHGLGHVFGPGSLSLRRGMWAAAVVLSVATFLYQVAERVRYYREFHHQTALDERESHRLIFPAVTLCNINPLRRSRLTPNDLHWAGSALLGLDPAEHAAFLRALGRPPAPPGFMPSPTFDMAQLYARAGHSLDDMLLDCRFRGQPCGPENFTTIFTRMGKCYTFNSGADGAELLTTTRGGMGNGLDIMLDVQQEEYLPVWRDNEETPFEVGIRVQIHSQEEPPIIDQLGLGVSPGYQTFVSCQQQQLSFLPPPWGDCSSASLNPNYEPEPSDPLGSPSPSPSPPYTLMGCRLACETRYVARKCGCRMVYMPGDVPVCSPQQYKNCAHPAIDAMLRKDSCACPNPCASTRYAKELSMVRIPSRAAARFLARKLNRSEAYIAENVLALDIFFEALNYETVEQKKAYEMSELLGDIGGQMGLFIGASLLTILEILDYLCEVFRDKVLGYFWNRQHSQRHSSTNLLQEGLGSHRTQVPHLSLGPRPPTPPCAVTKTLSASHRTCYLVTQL
Protocol: The activity of ligands was checked on human ASIC3 (hASIC3) channels expressed in Xenopus laevis oocytes. […] Two different protocols were used to reveal the effects of ligands on sustained and transient components of acid-induced hASIC3 currents. The influence of the compounds on the transient current amplitude was estimated after preincubation for 15 s before the activation in a low alkali bath solution (pH 7.8), which ensured an absence of steady-state desensitization for the transient current (Figure 1A). The compounds’ inhibition effectiveness was calculated using the value of maximal amplitudes. […] The inhibitory effect was concentration-dependent and fit well using a logistic equation.
Figure 1 Comparison of ligands’ antagonistic effects on hASIC3 channels. Whole-cell currents were induced by pH drops and recorded at the holding potential −50 mV. (A) Effect of ligands on the transient component of current at conditioning pH 7.8. The control trace is shown first; (B) Effect of ligands on the sustained component at conditioning pH 7.3. The black line is the control trace, and the red line is the trace of activation in the presence of a ligand. Dose-response curves for transient (C) and sustained (D) currents’ inhibitions are shown. Data are shown as mean ± SEM (n = 4–6) and fitted with the logistic equation (solid lines).
X. laevis oocytes were removed surgically and defolliculated by collagenase (Sigma-Aldrich, Moscow, Russia). Oocytes were injected with 2.5 to 10 ng of human ASIC3 cRNA (AF057711.1). The cRNA transcripts were synthesised from a NaeI-linearized ASIC3 cDNA template (pcDNA3.1+humanASIC3 subcloned from clone EX-Q0260- B02 (GeneCopoeia, Inc., Rockville, MD USA) using a HiScribe T7 High Yield RNA Synthesis Kit (New England Biolabs, Ipswich, MA, USA) according to the manufacturer’s protocol for capped transcripts. After the injection, oocytes were kept for 3 to 6 days at 19° in a ND-96 medium containing (in mM) 96 NaCl, 2 KCl, 1.8 CaCl2, 1 MgCl2, and 5 HEPES titrated to pH 7.4 with NaOH supplemented with gentamycin (50 µg/mL). Two-electrode voltage clamp recordings were performed using a GeneClamp 500 amplifier (Axon Instruments, Union City, CA, USA), and the data were filtered at 20 Hz and digitized at 100 Hz by an AD converter L780 (LCard, Moscow, Russia) using in-house software. To induce transient and/or sustained currents, two different protocols with different conditioning pH were used. Microelectrodes were filled with a 3 M KCl solution. The working buffer solution was ND-96 titrated by NaOH to pH 7.8 or 7.3. The solution for the pH shift was constructed based on the ND-96 solution, in which 5 mM HEPES was replaced with 10 mM acetic acid (pH 4.0) or 10 mM MES (pH 5.5) in a supplementary 0.1% BSA solution. The duration of the activation pulses was 3.5 s.
The analysis of the electrophysiological data was performed using the OriginPro 8.6 programme.

[1] = hASIC3 in X. laevis oocytes, conditioning pH 7.8, mean ± SEM (n = 4–6)

Row | SMILES | Effect in CFA test at lowest dose (mice; 0.002 mg/kg (Ugr9-1), 2 h before) | Dose dependence of effect, thermal hyperalgesia (mice; 2 h before, n = 7–8) | Dose of maximal effect, thermal hyperalgesia (mice; 2 h before, n = 7–8) [mg/kg] | Reversal of thermal hyperalgesia, 1 mg/kg compared with 0.001–0.002 mg/kg (mice; 2 h before, n = 7–8) | Thermal hyperalgesia result (in words) (mice; 2 h before, n = 7–8) | Effect confirmed in independent experiment (mice) | Rank of in vitro potency, transient component of hASIC3 current (human ASIC3) | Concentration needed to block transient current relative to APETx2 (human ASIC3; Ugr9-1 versus APETx2) [times] | Lower efficacy in inhibition of the transient component relative to APETx2 (human ASIC3; Ugr9-1 versus APETx2) [times] | Inhibition of transient current (in words) (human ASIC3; conditioning pH 7.8) | Hill coefficient, transient currents (human ASIC3; [1]) | Reversal of thermal hyperalgesia, comparison at 1 mg/kg (mice; 1 mg/kg intramuscular, 2 h before, hot plate 53 °C, n = 7–8) | Effect in CFA test at lowest dose (mice; 0.001 mg/kg (sevanol), 2 h before) | IC50 (human ASIC3; hASIC3 in X. laevis oocytes, conditioning pH 7.8, 15 s preincubation, holding -50 mV, logistic fit, mean ± SEM (n = 4–6), read-out: IC50, transient currents) [µM] | Lower efficacy in vitro relative to APETx2 (human ASIC3; sevanol versus APETx2) [fold] | Lower efficacy in vitro relative to Ugr9-1 (human ASIC3; sevanol versus Ugr9-1) [fold]
1 | CC[C@H](C)[C@H](N)C(=O)N[C@@H](CO)C(=O)N[C@H](C(=O)N[C@@H](CC(=O)O)C(=O)N1CCC[C@H]1C(=O)N1CCC[C@H]1C(=O)N[C@H]1CSSC[C@@H](C(=O)NCC(=O)N[C@@H](C)C(=O)N[C@H](C(=O)O)C(C)C)NC(=O)CNC(=O)[C@H](Cc2ccc(O)cc2)NC(=O)[C@H](C)NC(=O)[C@H](CC(=O)O)NC(=O)[C@H](Cc2ccc(O)cc2)NC(=O)[C@H](C(C)C)NC(=O)[C@@H]2CSSC[C@H](NC(=O)[C@H](Cc3ccccc3)NC(=O)[C@H](CCCNC(=N)N)NC1=O)C(=O)N[C@@H](Cc1ccc(O)cc1)C(=O)N[C@@H](Cc1c[nH]cn1)C(=O)N[C@@H](CCCNC(=N)N)C(=O)N[C@@H](CC(=O)O)C(=O)NCC(=O)N[C@@H](CO)C(=O)NCC(=O)N[C@@H](CC(N)=O)C(=O)N2)[C@@H](C)CC [Ugr9-1] (H-ISIDPPCRFCYHRDGSGNCVYDAYGCGAV-OH; disulfide 7-26, 10-19; N-terminus and C-terminus assumed) | absence of the effect | bell-shaped; also recorded: nonlinear dose response | 0.02 | did not differ significantly | reversed CFA-induced thermal hyperalgesia and prolonging withdrawal latency of the inflamed hind paw on a hot plate | confirmed in the independent experiment | APETx2 > Ugr9-1 > sevanol | 30 | 30 | completely blocked the transient current of ASIC3; also recorded: decreased transient and sustained components of the current | 1.86 ± 0.16 |  |  |  |  | 
2 | O=C(O)Cc1ccccc1Nc1c(Cl)cccc1Cl [diclofenac, reference compound] |  |  |  |  |  |  |  |  |  | not detected |  | equal potency in the reversal of thermal hyperalgesia, which exceeded the analgesic potency of sevanol and Ugr9-1 |  |  |  | 
3 | O=C(O)C[C@H](C(=O)O)[C@@H](OC(=O)C1=Cc2cc(O)c(O)cc2[C@@H](c2ccc(O)c(O)c2)[C@@H]1C(=O)O[C@@H](C(=O)O)[C@H](CC(=O)O)C(=O)O)C(=O)O [sevanol] |  | bell-shaped; also recorded: nonlinear dose response | 0.01 | did not differ significantly | reversed CFA-induced thermal hyperalgesia and prolonging withdrawal latency of the inflamed hind paw on a hot plate | confirmed in the independent experiment | APETx2 > Ugr9-1 > sevanol |  |  | had much less potency and inhibited transient currents in submillimolar concentrations; also recorded: complete inhibition was observed; also recorded: decreased transient and sustained components of the current | 1.98 ± 0.24 |  | absence of the effect | 331 ± 21 | 1000 | 35
